Measurements as given in PMC11101637, “Bioinformatics leading to conveniently accessible, helix enforcing, bicyclic ASX motif mimics (BAMMs)” (Nature Communications, 2024).
Peptide text beside a SMILES is read from it. * marks the point of attachment. X3 = C[C@@H]1NC(=O)[C@H](CCC(N)=O)NC(=O)[C@H](CC(=O)O)NC(=O)[C@@H](N)CSCc2cc3cc(c2)CSC[C@@H](C(=O)*)NC(=O)[C@H](CSC3)NC1=O; X1 = C[C@@H]1NC(=O)[C@H](CC(=O)O)NC(=O)[C@@H](N)CSCc2cc3cc(c2)CSC[C@@H](C(=O)*)NC(=O)[C@H](CSC3)NC(=O)[C@H](CO)NC1=O

What was measured:
[1] = CD spectroscopy: percent helicity and ellipticity ratio 222/208 nm; type: physicochemical; settings: for % helicity: 5-30 μM peptide, three scans averaged, [θ]222/[θ]max
Method: Circular dichroism (CD) experiments
Concentrations of the stock solution were determined by […] absorption of Trp or 275 nm absorption of Tyr (and TMB, if present in peptides). Each sample was dissolved in 1x PBS (pH 7.4), 10% TFE/PBS or 20% TFE/PBS with the final concentration between 5 to 30 μM. CD spectra were acquired using circular dichroism spectrometer (Chirascan) equipped with a temperature controller using 1 mm cell at a scan speed of 0.5 nm/sec at indicated temperature. Each sample was scanned three times and the averaged spectrum was smoothed.
Calculation of percent helicity
For simplicity, ‘helicity’ or ‘helical’ in the following text all refers to α-type. For each peptide, mean residue ellipticities ([θ]/(c*n), c = concentration of the peptide, n = number of amino acids in the peptide) were used to calculate % helicity, which is an empirical indicator of peptide helicity. […] (n = number of amino acids in the peptide, T = 25.0 °C).

[2] = circular dichroism; settings: PBS; pH 7.4; 25 °C; 5-30 uM
[3] = In vitro peptide stability in human serum; type: in vitro ADME; settings: 25% male human serum diluted in RPMI medium, 150 μM peptide, 37 °C, serum pre-equilibrated 15 min, methanol precipitation, RP-HPLC 210 nm peak area relative to 0 h, LC-MS for products
Method: In vitro peptide stability in human serum[50]
Male human serum (H-4522) was obtained from Sigma Aldrich (Missouri, USA). […] The initial time is recorded as peptides were added. The mixture was incubated at 37 °C and an aliquot of 40 μL was removed at different time intervals. […] The supernatant was analyzed in analytical RP-HPLC to calculate the amount of tested peptides, and in LCMS to analyze degradation products. The eluted peptides were detected by absorbance at 210 nm and quantified by their peak areas relative to the initial peak areas (0 h).

[4] = CD in PBS buffer (pH 7.4, 10 mM), 25.0 °C, 1 mm cell

For `CC[C@H](C)[C@H](NC(=O)[C@H](CCC(=O)O)NC(=O)[C@H](C)NC(=O)[C@H](CC(C)C)NC(=O)[C@H](CCC(N)=O)NC(=O)[C@@H]1CSCc2cc3cc(c2)CSC[C@H](N)C(=O)N[C@@H](CC(=O)O)C(=O)N[C@@H](CCC(N)=O)C(=O)N[C@@H](C(C)C)C(=O)N[C@@H](CSC3)C(=O)N1)C(=O)N[C@@H](Cc1ccc(O)cc1)C(N)=O` [1B], the “ellipticity ratio 222/208 nm” value ([1]; CD in 10% TFE/PBS, 25 °C) was 0.86, the “% helicity” value ([1]; CD in 10% TFE/PBS, 25 °C) was 43% and the “% helicity” value [1, 4] was 17%. The “ellipticity ratio 222/208 nm” value ([1]; CD in PBS, 25 °C) was 0.48, the helicity [2] was 17% and the half-life at 150 μM [3] was 5.1 h.
With `CC(C)C[C@H](NC(=O)[C@H](C)NC(=O)[C@H](CCCNC(=N)N)NC(=O)[C@H](CC(C)C)NC(=O)[C@H](CC(C)C)NC(=O)[C@@H]1CSCc2cc3cc(c2)CSC[C@H](N)C(=O)N[C@@H](CC(=O)O)C(=O)N[C@@H](CCC(N)=O)C(=O)N[C@@H](C)C(=O)N[C@@H](CSC3)C(=O)N1)C(=O)N[C@@H](CC(=O)O)C(=O)N[C@@H](CCC(N)=O)C(=O)N[C@@H](Cc1ccc(O)cc1)C(N)=O` [2B] (X3-LLRALDQY-NH2; N-terminus and C-terminus assumed) the “ellipticity ratio 222/208 nm” value ([1]; CD in 10% TFE/PBS, 25 °C) was 1, the “% helicity” value ([1]; CD in 10% TFE/PBS, 25 °C) was 42% and the “% helicity” value [1, 4] was 25%. For the same compound, the “ellipticity ratio 222/208 nm” value ([1]; CD in PBS, 25 °C) was 0.91, the helicity [2] was 25% and the half-life at 150 μM [3] was 2.9 h.
In the case of `CC[C@H](C)[C@H](NC(=O)[C@@H]1CSCc2cc3cc(c2)CSC[C@H](N)C(=O)N[C@@H](CC(=O)O)C(=O)N[C@@H](C)C(=O)N[C@@H](CO)C(=O)N[C@@H](CSC3)C(=O)N1)C(=O)N[C@@H](CCCNC(=N)N)C(=O)N[C@@H](CCC(=O)O)C(=O)N[C@H](C(=O)N[C@@H](CO)C(=O)N[C@@H](CC(C)C)C(=O)N[C@@H](CC(C)C)C(=O)N[C@@H](CCCCN)C(=O)N[C@@H](CCC(=O)O)C(=O)N[C@@H](Cc1ccc(O)cc1)C(N)=O)[C@@H](C)CC` [3B] (X1-IREISLLKEY-NH2; N-terminus and C-terminus assumed), the “ellipticity ratio 222/208 nm” value ([1]; CD in 10% TFE/PBS, 25 °C) is reported as 0.84, the “% helicity” value ([1]; CD in 10% TFE/PBS, 25 °C) is reported as 34% and the “% helicity” value [1, 4] is reported as 17%. For the same compound, the “ellipticity ratio 222/208 nm” value ([1]; CD in PBS, 25 °C) was 0.5, the helicity [2] was 17% and the half-life at 150 μM [3] was 3.5 h.
In the case of `CC[C@H](C)[C@H](NC(=O)[C@H](CC(N)=O)NC(=O)[C@H](CCCCN)NC(=O)[C@H](CSC)NC(=O)[C@H](CSC)NC(=O)[C@H](C)NC(=O)[C@H](C)NC(=O)[C@H](CC(=O)O)NC(=O)[C@@H](N)CSC)C(=O)N[C@@H](C)C(=O)N[C@@H](CO)C(=O)N[C@@H](CC(C)C)C(=O)N[C@@H](CC(C)C)C(=O)N[C@@H](CCCNC(=N)N)C(=O)N[C@H](C(=O)N[C@@H](CCC(N)=O)C(=O)N[C@@H](C)C(=O)N[C@@H](Cc1c[nH]cn1)C(=O)N[C@H](C(=O)N[C@@H](CCCNC(=N)N)C(=O)N[C@@H](CCCCN)C(=O)N[C@@H](CCCCN)C(=O)N[C@@H](CCSC)C(=O)N[C@H](C(=O)N[C@@H](Cc1ccc(O)cc1)C(N)=O)C(C)C)[C@@H](C)CC)C(C)C` [4m] (H-C(Me)DAAC(Me)C(Me)KNIASLLRVQAHIRKKMVY-NH2; N-terminus and C-terminus assumed), the “ellipticity ratio 222/208 nm” value ([1]; CD in 10% TFE/PBS, 25 °C) is reported as 0.73, the “% helicity” value ([1]; CD in 10% TFE/PBS, 25 °C) is reported as 35% and the “% helicity” value [1, 4] is reported as 11%. For the same compound, the “ellipticity ratio 222/208 nm” value ([1]; CD in PBS, 25 °C) was 0.29 and the half-life [3] was less than 1 h.
With Ac-KNIASLLRVQAHIRKKMVY-NH2 [4l] the “ellipticity ratio 222/208 nm” value ([1]; CD in 10% TFE/PBS, 25 °C) was 0.69, the “% helicity” value ([1]; CD in 10% TFE/PBS, 25 °C) was 35% and the “% helicity” value [1, 4] was 14%. For the same compound, the “ellipticity ratio 222/208 nm” value ([1]; CD in PBS, 25 °C) was 0.27, the helicity [2] was 14% and the half-life [3] was less than 1 h.
